In article PMC6479519, “New Quinoline-Based Heterocycles as Anticancer Agents Targeting Bcl-2” (Molecules, 2019) one finds IC50 data, which are given here for 3 molecules.

Where two headings read alike, the source gives them in different places.

The assay addresses T1, His-tagged Bcl-2 (Homo sapiens, UniProt P10415).
T1 construct: gene BCL2; commercial His-tagged Bcl-2 protein (Abcam); tag kept
Put plainly: competitive ELISA, His-tagged Bcl-2 vs immobilised biotinylated Bim peptide. Format: binding. The note with it: read-out: ELISA IC50 (μM) ^1. In general terms: ELISA stands for enzyme-linked immunosorbent assay.

Setting [1] is: competition with Bim peptide (residues 81–106), 20 nM Bcl-2, PBS, room temperature.

T1 sequence (P10415 whole entry): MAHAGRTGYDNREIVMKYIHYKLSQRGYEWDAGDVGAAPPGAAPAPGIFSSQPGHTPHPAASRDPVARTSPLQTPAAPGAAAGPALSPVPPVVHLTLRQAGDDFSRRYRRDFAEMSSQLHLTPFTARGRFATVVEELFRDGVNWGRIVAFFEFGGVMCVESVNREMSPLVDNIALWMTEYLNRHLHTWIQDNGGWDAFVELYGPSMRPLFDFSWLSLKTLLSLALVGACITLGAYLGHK

The term IC50 denotes the concentration that gives 50% inhibition. As to `Cc1ccc(Nc2nnc(-c3cc(-c4ccc(Br)cc4)nc4ccccc34)o2)cc1` [6c], the IC50 under setting [1] is 1.93 ± 0.007 µM.
As to `O=[N+]([O-])c1ccc(Nc2nnc(-c3cc(-c4ccc(Br)cc4)nc4ccccc34)o2)cc1` [6d], the IC50 amounted to 14.5 ± 1.2 µM.
Regarding `COc1ccc2nc(-c3ccc(Br)cc3)cc(-c3nnc(Nc4ccc([N+](=O)[O-])cc4)o3)c2c1` [6i], the IC50 under setting [1] stood at 0.15 ± 0.02 µM.
